Laboratory results taken from patent US20140045805A1, “Fragrance Compositions and Other Compositions Which Contain Naturally Occurring Substances Found in Corals” (priority 2007, published 2014).
Where two headings read alike, the source gives them in different places.

Assays:
[1] = system: peripheral nasal chemosensory receptors; details: androstadienone 27 picograms, muricin aglycone 30 picograms; adapted from Monti-Bloch et al. (1994); cited from earlier work
humans = details: Grosser et al., 2000, cited from earlier work; for Effect on negative affect / negativity: administered nasally to humans

melting point [°C]	Structure (SMILES)	Depolarization of the electrogram of peripheral nasal chemosensory receptors [1]	Effect on negative affect / negativity (humans)	Effect on negative affect / negativity (humans; listed as Androsta-4,16-dien-3-one)	Effect on social warmth and friendliness, personal well-being and arousal/excitement (humans; humans)
–	C[C@@]12C=CC[C@H]1[C@@H]1CCC3=CC(=O)CC[C@]3(C)[C@H]1CC2 [androstadienone, androsta-4,16-dien-3-one]	robust depolarization	decreased negativity	reduction of negative affect	no effect
124 to 126	C=C[C@H]1CC[C@H]2[C@@H]3CC[C@H]4CC(=O)C=C[C@]4(C)[C@H]3CC[C@]12C	–	–	–	–
